Tests used:
[1] = test system: CAKI-2 cells; experiment: MTT cytotoxicity assay; format: cell-based, human; conditions: Homo sapiens, CAKI-2, cell growth, 48 h treatment, read-out: IC50 (μM) ± SD CAKI-2
Description: Human normal renal cortical proximal tubular epithelial cell line HK-2 and human renal carcinoma cell lines CAKI-2, SLR-23, 769-P, A704 and RCC4 were previously purchased from the American Type Culture Collection (ATCC, Manassas, VA, USA) or the European Collection of Cell Cultures (ECACC, Salisbury, United Kingdom). HK2, A704, and RCC4 cells were maintained in high glucose DMEM supplemented with 10% FBS and 1% penicillin/streptomycin. SLR-23 and […] cells were cultured in RPMI-1640 medium with 10% FBS and 1% penicillin/streptomycin. CAKI-2 cells were maintained in McCoy’s 5A medium supplemented with 10% FBS and 1% penicillin/streptomycin. All the cell lines were cultured at 37°C in a humidified atmosphere of 5% CO2 and 95% air.
The effect of hit compounds on cytotoxicity was determined as previously reported ([Ding et al., 2020]). In brief, cells treated with the tested compounds were added with MTT reagent to form formazan crystals, and then the optical density (OD) values at 570 nm were determined after the crystals were dissolved in DMSO. […] Next, the values of IC50 of the selected compounds against more RCC cell lines were determined. The 5 × 10^3 cells in 100 μL culture medium were injected into each well of a 96-well plate and cultured overnight. Add different concentrations of compounds and incubate for 48 h. Then 100 μL of MTT (0.5 mg/mL) solution was added to the 96-well plate and maintained at 37°C for 4 h. Finally, 200 μL of DMSO was added and shaken for 10 min. The OD values at 570 nm were determined by a Synergy 4 microplate reader.

[2] = molecular target: T1, STAT3 (Homo sapiens, UniProt P40763); experiment: STAT3 binding inhibition assay; parameters: purchased Abcam
T1 sequence (P40763 whole entry): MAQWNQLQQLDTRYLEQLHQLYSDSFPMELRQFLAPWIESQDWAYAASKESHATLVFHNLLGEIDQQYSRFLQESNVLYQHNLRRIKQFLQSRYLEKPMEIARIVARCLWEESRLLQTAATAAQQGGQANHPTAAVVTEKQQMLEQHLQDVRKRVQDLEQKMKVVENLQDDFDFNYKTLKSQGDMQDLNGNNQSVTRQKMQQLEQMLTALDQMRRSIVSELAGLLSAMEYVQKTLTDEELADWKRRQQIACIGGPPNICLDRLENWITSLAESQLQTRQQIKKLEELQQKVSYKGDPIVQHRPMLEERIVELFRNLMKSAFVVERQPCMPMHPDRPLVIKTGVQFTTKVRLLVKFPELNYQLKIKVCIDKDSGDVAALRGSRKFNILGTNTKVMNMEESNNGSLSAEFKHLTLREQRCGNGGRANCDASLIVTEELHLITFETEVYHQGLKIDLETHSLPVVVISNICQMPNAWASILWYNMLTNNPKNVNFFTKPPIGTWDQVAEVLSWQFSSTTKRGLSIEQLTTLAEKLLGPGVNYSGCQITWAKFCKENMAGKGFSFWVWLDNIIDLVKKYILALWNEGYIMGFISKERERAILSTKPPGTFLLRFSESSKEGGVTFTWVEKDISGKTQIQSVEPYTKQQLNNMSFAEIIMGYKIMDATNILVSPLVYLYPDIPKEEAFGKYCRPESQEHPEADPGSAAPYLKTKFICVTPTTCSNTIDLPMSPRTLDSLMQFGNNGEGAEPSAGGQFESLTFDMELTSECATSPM

[3] = molecular target: T2, BRD4 (Homo sapiens, UniProt O60885); experiment: AlphaScreen BRD4 binding inhibition assay; parameters: purchased Abcam
[4] = molecular target: T2, BRD4; experiment: Microscale thermophoresis (MST) assay; format: binding; parameters: purchased Abcam; conditions: MST
[5] = molecular target: T1, STAT3; experiment: Microscale thermophoresis (MST) assay; format: binding; parameters: purchased Abcam; conditions: MST
Description: The MST experiments were performed using the Monolith NT.115 instrument. BRD4 and STAT3 proteins were labeled with the Lys labeling kit at the final concentration of 100 nM. The compounds, previously suspended in 100% DMSO, were diluted in a buffer containing 20 mM Tris·HCl (pH 7.5), 100 mM NaCl, and 3 mM DTT, achieving a final DMSO concentration of 5%. The compounds were gradient-diluted in 1:1 dilution and starting from 100 μM. The samples were loaded into MST-standard glass capillaries. All the measurements were performed in triplicate using automatically assigned 50% MST power and 20% LED power. Data analysis was performed using GraphPad Prism 7.0 software.

[6] = test system: BRD4; parameters: method as in Boi et al., 2015; conditions: BRD4 inhibitor; ref Boi et al., 2015; read-out: IC50 value as reported; cited from earlier work

STAT3 (IC50, nM) [2] | IC50 [3] [nM] | IC50 [2] [nM] | Kd [4] [nM] | Kd [5] [nM] | Compound | IC50 [1] [µM] | IC50 [6] [nM]
no inhibition | – | – | – | – | COc1cc(OC)c2c(=O)[nH]c(-c3cc(C)c(OCCO)c(C)c3)nc2c1 [RVX-208, reference compound] | 3.71 ± 0.42 | –
– | 7.09 ± 0.53 | 11.3 ± 0.95 | 5.37 ± 0.49 | 8.42 ± 0.38 | CCS(=O)(=O)Cc1cnc(Oc2c(F)cc(F)cc2OC[C@@H]2CCC[C@H](COc3ccc(/C=C/c4cc(OC)cc(OC)c4)cc3)N2)c(-c2cc(C)c3c(=O)[nH]ccn23)c1 [BST-3] | – | –
– | 15.7 ± 1.31 | 20.8 ± 1.94 | 12.3 ± 1.16 | 16.4 ± 0.95 | CCS(=O)(=O)Cc1cnc(Oc2c(F)cc(F)cc2OCc2nc(COc3ccc(/C=C/c4cc(OC)cc(OC)c4)cc3)c[nH]2)c(-c2cc(C)c3c(=O)[nH]ccn23)c1 [BST-1] | – | –
– | 4.64 ± 0.17 | 27.2 ± 2.82 | 3.62 ± 0.25 | 28.7 ± 3.71 | CCS(=O)(=O)Cc1cnc(Oc2c(F)cc(F)cc2O/C=C\CC(=O)COc2ccc(/C=C/c3cc(OC)cc(OC)c3)cc2)c(-c2cc(C)c3c(=O)[nH]ccn23)c1 [BST-2] | – | –
– | – | – | – | – | Cc1sc2c(c1C)C(c1ccc(Cl)cc1)=N[C@@H](CC(=O)Nc1ccc(O)cc1)c1nnc(C)n1-2 [OTX-015] | – | ~92
– | 10.1 ± 1.15 | 17.8 ± 1.24 | 9.72 ± 0.84 | 13.7 ± 0.98 | CCS(=O)(=O)Cc1cnc(Oc2c(F)cc(F)cc2OCC2CCC(COc3ccc(C=Cc4cc(OC)cc(OC)c4)cc3)N2)c(-c2cc(C)c3c(=O)[nH]ccn23)c1 (stereo not shown) [BST-5] | – | –

Reference: article PMC11897524 (Frontiers in Pharmacology, 2025)
